From article PMC7048192, “7-Acylamino-3H-1,2-benzoxathiepine 2,2-dioxides as new isoform-selective carbonic anhydrase IX and XII inhibitors” (Journal of Enzyme Inhibition and Medicinal Chemistry, 2020)

Experiments:
Test in all cases: stopped-flow CO2 hydrase assay
Format in all cases: biochemical
[1] = target: T1, hCA IX (Homo sapiens, UniProt Q16790); conditions: read-out: KI (nM)^a,b / hCA IX
T1 construct: gene CA9; recombinant, obtained in-house
Source text: stopped-flow CO2 hydrase assay on hCA IX

[2] = target: T2, hCA XII (Homo sapiens, UniProt O43570); conditions: read-out: KI (nM)^a,b / hCA XII
T2 construct: gene CA12; recombinant, obtained in-house
Source text: stopped-flow CO2 hydrase assay on hCA XII

[3] = target: T3, hCA II (Homo sapiens, UniProt P00918); conditions: read-out: KI (nM)^a,b / hCA I
T3 construct: gene CA2; recombinant, obtained in-house

[4] = target: T4, hCA I (Homo sapiens, UniProt P00915); conditions: read-out: KI (nM)^a,b / hCA I
T4 construct: gene CA1; recombinant, obtained in-house
Source text: stopped-flow CO2 hydrase assay on hCA I

T2 sequence (O43570 25-354): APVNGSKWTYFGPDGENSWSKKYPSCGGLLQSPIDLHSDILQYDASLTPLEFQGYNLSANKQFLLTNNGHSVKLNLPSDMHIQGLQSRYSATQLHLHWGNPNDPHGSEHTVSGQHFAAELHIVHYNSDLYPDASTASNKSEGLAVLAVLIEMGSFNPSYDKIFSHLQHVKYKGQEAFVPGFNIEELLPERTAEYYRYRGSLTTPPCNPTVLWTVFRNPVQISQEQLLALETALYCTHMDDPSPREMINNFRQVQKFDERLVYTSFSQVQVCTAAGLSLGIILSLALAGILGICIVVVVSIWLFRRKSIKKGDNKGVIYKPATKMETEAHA
T4 sequence (P00915 2-261): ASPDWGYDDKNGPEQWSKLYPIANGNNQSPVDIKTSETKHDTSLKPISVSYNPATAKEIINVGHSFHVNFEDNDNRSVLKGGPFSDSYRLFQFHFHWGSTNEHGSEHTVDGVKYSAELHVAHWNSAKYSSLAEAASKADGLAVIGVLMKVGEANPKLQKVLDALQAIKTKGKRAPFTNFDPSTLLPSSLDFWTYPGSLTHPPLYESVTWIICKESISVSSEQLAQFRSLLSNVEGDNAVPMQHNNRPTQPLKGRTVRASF

Row | SMILES | Ki [1] | Ki [2] | Ki [3] | Ki [4]
1 | CC(=O)Nc1ccc2c(c1)C=CCS(=O)(=O)O2 [compound 8, N-(2,2-Dioxido-3H-1,2-benzoxathiepin-7-yl)acetamide] | 61.8 nM | 162 nM | > 100000 nM | > 100000 nM
2 | O=C(Nc1ccc2c(c1)C=CCS(=O)(=O)O2)c1ccccc1 [compound 9, N-(2,2-Dioxido-3H-1,2-benzoxathiepin-7-yl)benzamide] | 209 nM | 370 nM | > 100000 nM | > 100000 nM
3 | Cc1ccc(C(=O)Nc2ccc3c(c2)C=CCS(=O)(=O)O3)cc1 [compound 10, N-(2,2-Dioxido-3H-1,2-benzoxathiepin-7-yl)-4-methy benzamide] | 83 nM | 309 nM | > 100000 nM | > 100000 nM
4 | O=C(Nc1ccc2c(c1)C=CCS(=O)(=O)O2)c1ccc(Br)cc1 [compound 11, N-(2,2-Dioxido-3H-1,2-benzoxathiepin-7-yl)4-bromobenzamide] | 353 nM | 141 nM | > 100000 nM | > 100000 nM
5 | O=C(Nc1ccc2c(c1)C=CCS(=O)(=O)O2)c1ccccc1I [compound 12, N-(2,2-Dioxido-3H-1,2-benzoxathiepin-7-yl)-2-iodobenzamide] | 45.4 nM | 644 nM | > 100000 nM | > 100000 nM
6 | O=C(Nc1ccc2c(c1)C=CCS(=O)(=O)O2)c1ccccc1Br [compound 13, N-(2,2-Dioxido-3H-1,2-benzoxathiepin-7-yl)-2-bromobenzamide] | 66.8 nM | 96.2 nM | > 100000 nM | > 100000 nM
7 | O=C(Nc1ccc2c(c1)C=CCS(=O)(=O)O2)c1ccccc1F [compound 14, N-(2,2-Dioxido-3H-1,2-benzoxathiepin-7-yl)-2-fluorobenzamide] | 74.6 nM | 40.3 nM | > 100000 nM | > 100000 nM
8 | O=C(Nc1ccc2c(c1)C=CCS(=O)(=O)O2)c1ccccc1C(F)(F)F [compound 15, N-(2,2-Dioxido-3H-1,2-benzoxathiepin-7-yl)-2-(trifluoromethyl)benzamide] | 19.7 nM | 8.7 nM | > 100000 nM | > 100000 nM
9 | O=C(Nc1ccc2c(c1)C=CCS(=O)(=O)O2)c1cccs1 [compound 16, N-(2,2-Dioxido-3H-1,2-benzoxathiepin-7-yl)thiophene-2-carboxamide] | 178 nM | 73.2 nM | > 100000 nM | > 100000 nM
10 | O=C(Nc1ccc2c(c1)C=CCS(=O)(=O)O2)c1ccco1 [compound 17, N-(2,2-Dioxido-3H-1,2-benzoxathiepin-7-yl)furan-2-carboxamide] | 210 nM | 134 nM | > 100000 nM | > 100000 nM
